Reference: patent publication US8313752B2, “Macrocyclic lactone combination compositions, vaccines and methods for producing same” (Merial Limited, priority 2009, dated 2012)
Where “and” joins values, the source holds several entries; their conditions need not be identical. Identical values can stand only once. Like-named read-outs stand apart in the source and are kept apart here.

Key:
[1] = ML residues in milk of lactating dairy cows after single IM dose of ML/vaccine combination (LC-MS/MS); type: in vivo, Dairy cows (Friesian and Friesian cross); settings: for Residues in milk at 7 days after treatment relative to ACVM MRLs / Residues in milk at 21 days after treatment relative to LOQ: 0.3 and 0.4 mg/kg IM; for concentration at 21 day / concentration at 7 day / concentration at 14 day: female, Friesian and Friesian cross, cattle, intramuscular; for concentration at 21 day / ML residue in milk, Day 7 / ML residue in milk, Day 14 / ML residue in milk, Day 21 / concentration at 7 day / concentration at 14 day / ML residue in milk fat, Day 7 / ML residue in milk fat, Day 14 / ML residue in milk fat, Day 21: individual cows
Procedure: (§1) Study Objectives: 1) To measure ML residues in milk and tissues of lactating dairy cows after a single dose of an experimental formulation of eprinomectin, ivermectin, moxidectin or doramectin combined with an inactivated rotavirus, coronavirus and Escherichia coli vaccine was administered by intramuscular injection at 0.3 and 0.4 mg macrocyclic lactone/kg bodyweight. 2) To evaluate local tissue irritancy of the experimental formulations when administered to cattle by intramuscular injection.
Experimental formulations of each of four macrocyclic lactones were separately combined with equal parts of a registered vaccine, Rotavec® Corona (Schering-Plough). The recommended dose of Rotavec® Corona is 2 mL per animal, which was diluted to produce 4 mL of ML/vaccine combination. Each ML/vaccine combination contained 40 mg/mL macrocyclic lactone.
Methods: On day −5, fifty-four animals were identified for screening and were checked for mastitis by palpation of the mammary gland, visualization of the mammary secretions and Rapid Mastitis Test (RMT, Immucell, Portland, Me.). Individual milk samples were collected for somatic cell count (SCC) and thirty-three animals that met the inclusion criteria were selected for the study. Of the thirty-three animals, the cow with the highest average daily milk yield, as assessed over a seven-day period, was allocated as the control. The remaining thirty-two animals were ranked from highest to lowest on average daily milk yield, over the same time period, and divided into four blocks of eight animals each. A random number was generated for each animal using the Microsoft Excel random number generator function. Within each block, the lowest random number was allocated to Group 1, the second lowest to Group 2 and sequentially through to Group 8, creating eight groups of four animals each (Table 18).
On Day 0, the cows were weighed and blood samples were collected from all animals in Groups 1 and 2 for use in a subsequent plasma eprinomectin assay. The blood samples were stored frozen at or colder than −18° C. pending laboratory analysis. Each animal was treated with the indicated formulation at the appropriate dose rate. Doses were calculated based upon the animal's Day 0 bodyweight to provide approximately 40 mg ML/mL. Calculated doses were rounded up to the nearest 0.2 mL.
(§2) The formulations were administered by deep intramuscular injection in the anterior neck region. Injection sites were clean and dry and inspected for lesions prior to injection. Injections were administered with a different 10 mL syringe for each product. A sterile 18 gauge 1½ inch needle was used for each injection. The time of treatment was recorded. Evidence of pain on injection was assessed.
Blood samples were collected from all animals in Groups 1 and 2 for plasma eprinomectin assay on Days 1, 3 and 7 and stored frozen as described. The time of blood collection was recorded. Herd test equipment (De Laval) was used to collect an approximately 2% sample representative of the entire milking for each individual cow at the morning milking on each of Days 1-10 following treatment, and at the morning milking on Days 14, 21 and 35. Duplicate subsamples were decanted for each cow in Groups 1-4 and 7-9 and triplicate subsamples were decanted for each cow in Groups 5-6. Each sample from treated animals measured approximately 30 mL. The start and finish times for each milking of the 33 study animals were recorded to give an estimate of the actual time of milk sample collection.
The study animals were milked after the main herd. The milk line was thoroughly flushed with cold water prior to milking the study animals. The herd test equipment was cleaned between samplings. It was washed “in-line” with the milking plant wash. Sample vessels were then further cleaned through a dishwasher. The sampler connections were further cleaned by soaking in hot acid, then rinsed. Milk yields at each milking at which samples were collected were measured and recorded. […]

[2] = cited from earlier work
[3] = lactating cattle; cited from earlier work
[4] = system: cattle; experiment: Local tissue irritancy / injection site reactions after intramuscular injection; type: in vivo, Dairy cows (Friesian and Friesian cross); settings: for Injection site reactions, Count, Day 1 / Injection site reactions, Count, Day 3 / Injection site reactions, Count, Day 7 / Injection site reactions, Count, Day 14 / Injection site reactions, Count, Day 21: cows with reaction in group of 4; for Animals with injection site reactions that persisted at least until 21 days after treatment: group of 4 cows
Procedure: as §1, §2
Injection sites were examined by inspection and palpation at the morning milking on Days 1, 3, 7 and 14. Any visible or palpable reactions were described and measured (width, length and depth). Reactions that persisted after day 14 were re-evaluated on Day 21.

[5] = milk, 0.3 mg/kg, nominal 0.3 mg/kg single IM dose of ML/Rotavec Corona combination, milk (whole milk), read-out: ML residue in milk, Day 21
[6] = nominal 0.3 mg/kg single IM dose of ML/Rotavec Corona combination, milk (whole milk)
[7] = nominal 0.4 mg/kg single IM dose of ML/Rotavec Corona combination, milk (whole milk)
[8] = administered topically to cattle
[9] = nominal 0.3 mg/kg single IM dose of ML/Rotavec Corona combination, milk fat
[10] = nominal 0.4 mg/kg single IM dose of ML/Rotavec Corona combination, milk fat

## CO[C@H]1C[C@H](O[C@H]2[C@H](C)O[C@@H](O[C@@H]3/C(C)=C/C[C@@H]4C[C@@H](C[C@]5(C=C[C@H](C)[C@@H](C6CCCCC6)O5)O4)OC(=O)[C@@H]4C=C(C)[C@@H](O)[C@H]5OC/C(=C\C=C\[C@@H]3C)[C@]54O)C[C@@H]2OC)O[C@@H](C)[C@@H]1O [Doramectin]
[1]
  Residues in milk at 7 days after treatment relative to ACVM MRLs: near or above the ACVM MRLs
  Residues in milk at 21 days after treatment relative to LOQ: above the LOQ
[1]; [5]
  concentration at 21 day: < 1 ng/g
[1]; milk, 0.4 mg/kg, nominal 0.4 mg/kg single IM dose of ML/Rotavec Corona combination, milk (whole milk), read-out: ML residue in milk, Day 21
  concentration at 21 day: 1 ng/g
[1]; [6]
  ML residue in milk, Day 7: 0.0058 mg/kg and 0.0037 mg/kg and 0.0077 mg/kg and 0.0079 mg/kg
  ML residue in milk, Day 14: <0.0010 mg/kg and 0.0012 mg/kg and 0.0031 mg/kg and 0.0015 mg/kg
  ML residue in milk, Day 21: <0.0010 mg/kg (2×) and 0.0020 mg/kg
[1]; [7]
  ML residue in milk, Day 7: 0.014 mg/kg and 0.0061 mg/kg and 0.011 mg/kg and 0.0056 mg/kg
  ML residue in milk, Day 14: 0.0025 mg/kg (2×) and 0.0028 mg/kg and <0.0010 mg/kg
  ML residue in milk, Day 21: 0.0014 mg/kg (2×) and <0.0010 mg/kg

## CCC(C)C1OC2(C=CC1C)CC1CC(CC=C(C)C(OC3CC(OC)C(OC4CC(OC)C(NC(C)=O)C(C)O4)C(C)O3)C(C)C=CC=C3COC4C(O)C(C)=CC(C(=O)O1)C34O)O2 (stereo not shown) [Eprinomectin]
[2]; [8]
  Parent compound share of residues in feces: more than 85%
  Parent compound share of residues in tissues: 90%
[2]; cattle
  Milk-plasma coefficient: ≤ 0.2
[3]
  Elimination in milk, fold less than ivermectin or moxidectin: 50 fold
  Share of the total dose eliminated in the milk: 0.1%
[4]; 0.3 mg/kg IM
  Injection site reactions, Count, Day 1: 0
  Injection site reactions, Count, Day 3: 1
  Injection site reactions, Count, Day 7: 1
  Injection site reactions, Count, Day 14: 1
  Injection site reactions, Count, Day 21: 1
  Animals with injection site reactions that persisted at least until 21 days after treatment: One
[4]; 0.4 mg/kg IM
  Injection site reactions, Count, Day 1: 2
  Injection site reactions, Count, Day 3: 2
  Injection site reactions, Count, Day 7: 1
  Injection site reactions, Count, Day 14: 1
  Injection site reactions, Count, Day 21: 1
  Animals with injection site reactions that persisted at least until 21 days after treatment: One
[1]; all study animals (0.3 and 0.4 mg/kg IM)
  Residues in milk at 14 days after treatment relative to LOQ: below the limit of quantitation (LOQ)
[1]; all study animals (0.3 and 0.4 mg/kg IM), compared with MRL
  Residues in milk at 7 days after treatment: < 0.02 mg/kg
[1]; estimated from residue data relative to the MRLs that apply in Europe
  Withholding period (milk): 7 days
[1]; [6]
  ML residue in milk, Day 14: <0.0010 mg/kg
  ML residue in milk, Day 21: <0.0010 mg/kg
[1]; nominal 0.3 mg/kg single IM dose of ML/Rotavec Corona combination, milk (whole milk), listed as Eprinomectin B1a
  ML residue in milk, Day 7: 0.0012 mg/kg and 0.0017 mg/kg and <0.0010 mg/kg and 0.0023 mg/kg
[1]; [7]
  ML residue in milk, Day 14: <0.0010 mg/kg
  ML residue in milk, Day 21: <0.0010 mg/kg
[1]; nominal 0.4 mg/kg single IM dose of ML/Rotavec Corona combination, milk (whole milk), listed as Eprinomectin B1a
  ML residue in milk, Day 7: <0.0010 mg/kg (2×) and 0.0021 mg/kg and 0.0013 mg/kg

## CO/N=C1\C[C@]2(C[C@@H]3C[C@@H](C/C=C(\C)C[C@@H](C)/C=C/C=C4\CO[C@@H]5[C@H](O)C(C)=C[C@@H](C(=O)O3)[C@]45O)O2)O[C@H](/C(C)=C/C(C)C)[C@H]1C [Moxidectin, moxidectin]
[1]
  Residues in milk at 7 days after treatment relative to ACVM MRLs: near or above the ACVM MRLs
  Residues in milk at 21 days after treatment relative to LOQ: above the LOQ
[1]; milk fat, 0.3 mg/kg, nominal 0.3 mg/kg single IM dose of ML/Rotavec Corona combination, milk fat, read-out: ML residue in milk fat, Day 7
  concentration at 7 day: 800 ng/g
[1]; milk fat, 0.3 mg/kg, nominal 0.3 mg/kg single IM dose of ML/Rotavec Corona combination, milk fat, read-out: ML residue in milk fat, Day 14
  concentration at 14 day: 140 ng/g
[1]; milk fat, 0.3 mg/kg, nominal 0.3 mg/kg single IM dose of ML/Rotavec Corona combination, milk fat, read-out: ML residue in milk fat, Day 21
  concentration at 21 day: 59 ng/g
[1]; milk fat, 0.4 mg/kg, nominal 0.4 mg/kg single IM dose of ML/Rotavec Corona combination, milk fat, read-out: ML residue in milk fat, Day 7
  concentration at 7 day: 860 ng/g
[1]; milk, 0.3 mg/kg, nominal 0.3 mg/kg single IM dose of ML/Rotavec Corona combination, milk (whole milk), read-out: ML residue in milk, Day 7
  concentration at 7 day: 40 ng/g
[1]; milk, 0.3 mg/kg, nominal 0.3 mg/kg single IM dose of ML/Rotavec Corona combination, milk (whole milk), read-out: ML residue in milk, Day 14
  concentration at 14 day: 7.8 ng/g
[1]; [5]
  concentration at 21 day: 2.6 ng/g
[1]; milk, 0.4 mg/kg, nominal 0.4 mg/kg single IM dose of ML/Rotavec Corona combination, milk (whole milk), read-out: ML residue in milk, Day 7
  concentration at 7 day: 50 ng/g
[1]; [6]
  ML residue in milk, Day 7: 0.063 mg/kg and 0.042 mg/kg and 0.034 mg/kg
  ML residue in milk, Day 14: 0.010 mg/kg and 0.0099 mg/kg and 0.0079 mg/kg
  ML residue in milk, Day 21: 0.0040 mg/kg and 0.0031 mg/kg and 0.0041 mg/kg
[1]; [9]
  ML residue in milk fat, Day 7: 1.1 mg/kg and 1.0 mg/kg and 0.75 mg/kg
  ML residue in milk fat, Day 14: 0.26 mg/kg and 0.24 mg/kg and 0.18 mg/kg
  ML residue in milk fat, Day 21: 0.080 mg/kg and 0.068 mg/kg and 0.075 mg/kg
[1]; [7]
  ML residue in milk, Day 7: 0.044 mg/kg and 0.056 mg/kg and 0.037 mg/kg
  ML residue in milk, Day 14: 0.0081 mg/kg and 0.012 mg/kg and 0.015 mg/kg and 0.0069 mg/kg
  ML residue in milk, Day 21: 0.0055 mg/kg (2×) and 0.0037 mg/kg and 0.0023 mg/kg
[1]; [10]
  ML residue in milk fat, Day 7: 1.2 mg/kg and 1.5 mg/kg and 1.0 mg/kg
  ML residue in milk fat, Day 14: 0.17 mg/kg and 0.37 mg/kg and 0.47 mg/kg and 0.15 mg/kg
  ML residue in milk fat, Day 21: 0.091 mg/kg and 0.12 mg/kg and 0.14 mg/kg and 0.057 mg/kg
